ChEMBL document CHEMBL6096636 (Bioorg Med Chem, 2024)

What was measured:
[1] = Cytotoxicity against human HepG2 cells assessed as inhibition of cell growth incubated for 72 hrs by CCK8 assay; format: toxicity, cell-based
[2] = Cytotoxicity against HEK293T cells assessed as inhibition of cell growth incubated for 72 hrs by CCK8 assay; format: toxicity, cell-based, HEK-293T; settings: human
[3] = Selectivity index, ratio of IC50 for human HepG2 cells to IC50 for erythrocytic stage of Plasmodium falciparum 3D7; format: toxicity, cell-based; settings: read-out: Ratio IC50
[4] = Selectivity index, ratio of IC50 for HEK293T cells to IC50 for erythrocytic stage of Plasmodium falciparum 3D7; format: toxicity, cell-based; settings: human, read-out: Ratio IC50
Plasmodium falciparum [5] = experiment: microbe, parasite or virus in culture; settings: 3D7, 72 h
Description: Antimalarial activity against erythrocytic stage of Plasmodium falciparum 3D7 assessed as inhibition of growth incubated for 72 hrs by SYBR green I based assay

Plasmodium falciparum [6] = experiment: microbe, parasite or virus in culture; settings: Dd2, 72 h
Description: Antimalarial activity against erythrocytic stage of chloroquine-resistant Plasmodium falciparum Dd2 assessed as inhibition of growth incubated for 72 hrs by SYBR green I based assay

Plasmodium falciparum [7] = experiment: Antimalarial activity against sulfadoxine-pyrimethamine and mefloquine resistant Plasmodium falciparum clinical isolate CP286 assessed as inhibition of growth incubated for 72 hrs by SYBR green I based assay; format: functional, organism-based

Row | Structure (SMILES) | IC50 at 72 h [1] [nM] | IC50 at 72 h [2] [nM] | selectivity ratio [3] | selectivity ratio [4] | IC50 (Plasmodium falciparum [5]) [nM] | IC50 (Plasmodium falciparum [6]) [nM] | IC50 (Plasmodium falciparum [7]) [nM]
1 | Cn1cc(CN[C@H]2CC[C@@H](Nc3ncc(C(=O)NO)cn3)CC2)c2cnccc21 | > 10000 | > 10000 | > 157 | > 157 | 63.8 | 51.3 | –
2 | O=C(NO)c1cnc(N[C@H]2CC[C@@H](NCc3cccc4cccnc34)CC2)nc1 | > 10000 | > 10000 | > 152 | > 152 | 65.6 | 53.6 | –
3 | O=C(NO)c1cnc(N[C@H]2CC[C@@H](NCc3csc4ccccc34)CC2)nc1 | 1360 | 1940 | 54 | 77 | 25.3 | 34.8 | –
4 | O=C(NO)c1cnc(N[C@H]2CC[C@@H](NCc3ccc4ccc5cccc6ccc3c4c56)CC2)nc1 | 2130 | 2640 | 70 | 87 | 30.3 | 28.8 | –
5 | Cn1cc(CN[C@H]2CC[C@@H](Nc3ncc(C(=O)NO)cn3)CC2)c2ccc(Br)cc21 | 2220 | 4830 | 100 | 217 | 22.2 | 19 | –
6 | O=C(NO)c1cnc(N[C@H]2CC[C@@H](NCc3ccc(-c4ccccc4)cc3)CC2)nc1 | 2000 | 2180 | 22 | 24 | 92.1 | 179 | –
7 | O=C(NO)c1cnc(N[C@H]2CC[C@@H](NCc3cnc4ccccc4c3)CC2)nc1 | 3340 | 4360 | 123 | 161 | 27.1 | 37.6 | –
8 | O=C(NO)c1cnc(N[C@H]2CC[C@@H](NCc3ccncc3)CC2)nc1 | > 10000 | > 10000 | > 64 | > 64 | 156 | 186 | –
9 | Cn1cc(CN[C@H]2CC[C@@H](Nc3ncc(C(=O)NO)cn3)CC2)c2ncccc21 | > 10000 | 1250 | > 214 | 27 | 46.7 | 38.3 | –
10 | O=C(NO)c1cnc(N[C@H]2CC[C@@H](NCc3ccccc3)CC2)nc1 | – | 4620 | – | 44 | – | 54.6 | –
11 | O=C(NO)c1cnc(N[C@H]2CC[C@@H](NCc3cccc4ccncc34)CC2)nc1 | 7080 | 7080 | 163 | 163 | 43.4 | 62.1 | –
12 | O=C(NO)c1cnc(N[C@H]2CC[C@@H](NCc3cc4ccccc4c4ccccc34)CC2)nc1 | 1290 | 2010 | 120 | 187 | 10.7 | 12.3 | –
13 | O=C(NO)c1cnc(N[C@H]2CC[C@@H](NCc3coc4ccccc34)CC2)nc1 | 2580 | 3110 | 51 | 61 | 50.8 | 35.5 | –
14 | O=C(NO)c1cnc(N[C@H]2CC[C@@H](NCc3ccc4ccccc4c3)CC2)nc1 | 1130 | 1790 | 73 | 116 | 15.4 | 15.4 | –
15 | Cn1cc(CN[C@H]2CC[C@@H](Nc3ncc(C(=O)NO)cn3)CC2)c2ccc(F)cc21 | 3190 | 6000 | 267 | 501 | 12 | 14.5 | –
16 | O=C(NO)c1cnc(N[C@H]2CC[C@@H](NCc3ccsc3)CC2)nc1 | > 10000 | > 10000 | > 76 | > 76 | 132 | 71.2 | –
17 | CCc1nc(N)nc(N)c1-c1ccc(Cl)cc1 [PYRIMETHAMINE] | – | – | – | – | 24.8 | – | > 50000
18 | O=C(NO)c1cnc(N[C@H]2CC[C@@H](NCc3ccccn3)CC2)nc1 | > 10000 | > 10000 | > 72 | > 72 | 138 | 210 | –

Row | Structure (SMILES) | IC50 at 72 h [1] [nM] | IC50 at 72 h [2] [nM] | selectivity ratio [3] | selectivity ratio [4] | IC50 (Plasmodium falciparum [5]) [nM] | IC50 (Plasmodium falciparum [6]) [nM] | IC50 (Plasmodium falciparum [7]) [nM]
19 | O=C(NO)c1cnc(N[C@H]2CC[C@@H](NCc3cc4ccccc4s3)CC2)nc1 | 1440 | 2380 | 66 | 109 | 21.8 | 26.4 | –
20 | Cn1cc(CN[C@H]2CC[C@@H](Nc3ncc(C(=O)NO)cn3)CC2)c2cccnc21 | > 10000 | > 10000 | > 209 | > 209 | 47.9 | 53.9 | –
21 | O=C(NO)c1cnc(N[C@H]2CC[C@@H](NCC3CCCCC3)CC2)nc1 | 5840 | 3630 | 67 | 41 | 87.6 | 53.4 | –
22 | O=C(NO)c1cnc(N[C@H]2CC[C@@H](NCc3ccc4ccccc4n3)CC2)nc1 | 2430 | 2890 | 233 | 278 | 10.4 | 14.3 | –
23 | O=C(NO)c1cnc(N[C@H]2CC[C@@H](NCC3CCCC3)CC2)nc1 | 5490 | 5880 | 55 | 59 | 100 | 70.1 | –
24 | O=C(NO)c1cnc(N[C@H]2CC[C@@H](NCc3ccc4cc(F)ccc4n3)CC2)nc1 | 3620 | 2380 | 324 | 213 | 11.2 | 15.8 | –
25 | Cn1cc(CN[C@H]2CC[C@@H](Nc3ncc(C(=O)NO)cn3)CC2)c2ccc(Cl)cc21 | 2500 | 3650 | 146 | 213 | 17.1 | 18 | –
26 | Cn1nc(CN[C@H]2CC[C@@H](Nc3ncc(C(=O)NO)cn3)CC2)c2ccccc21 | 5790 | 5740 | 212 | 210 | 27.3 | 31.2 | –
27 | Cn1cc(CN[C@H]2CC[C@@H](Nc3ncc(C(=O)NO)cn3)CC2)c2ccccc21 | 1770 | 4310 | 163 | 399 | 10.8 | 11.9 | –
28 | Cn1cc(CN[C@H]2CC[C@@H](Nc3ncc(C(=O)NO)cn3)CC2)c2ccncc21 | > 10000 | > 10000 | > 192 | > 192 | 52.1 | 49.4 | –
29 | O=C(NO)c1cnc(N[C@H]2CC[C@@H](NCc3cccnc3)CC2)nc1 | 4580 | 4240 | 40 | 37 | 114 | 56.5 | –
30 | O=C(NO)c1cnc(N[C@H]2CC[C@@H](NCc3ccnc4ccccc34)CC2)nc1 | 7120 | > 10000 | 125 | > 176 | 57 | 54 | –
31 | O=C(NO)c1cnc(N[C@H]2CC[C@@H](NCc3ccc4ncccc4c3)CC2)nc1 | 6380 | 6980 | 143 | 157 | 44.5 | 47.2 | –
32 | O=C(NO)c1cnc(N[C@H]2CC[C@@H](NCc3c4ccccc4cc4ccccc34)CC2)nc1 | 858 | 1030 | 95 | 114 | 9 | 7.5 | –
33 | Cn1c(CN[C@H]2CC[C@@H](Nc3ncc(C(=O)NO)cn3)CC2)nc2ccccc21 | > 10000 | > 10000 | > 510 | > 510 | 19.6 | 26.4 | –
34 | O=C(NO)c1cnc(N[C@H]2CC[C@@H](NCc3ccoc3)CC2)nc1 | > 10000 | > 10000 | > 91 | > 91 | 109 | 106 | –
35 | O=C(NO)c1cnc(N[C@H]2CC[C@@H](NCc3cccc4ccccc34)CC2)nc1 | 642 | 1530 | 19 | 47 | 34.3 | 39.5 | –
